In ChEMBL document CHEMBL1135126, “Identification of novel antifungal nonapeptides through the screening of combinatorial peptide libraries based on a hexapeptide motif” (Bioorg Med Chem Lett, 2002):
Values after ≈ are worked out from the molar mass of the structure shown. Where a SMILES comes first, the peptide text is derived from it. [ ]: non-standard residue; d: D form.

These compounds were tested on Candida albicans (assay: Concentration that substantially inhibit growth of Candida albicans).
Format: functional, organism-based

| SMILES | IC50 |
| --- | --- |
| CC[C@H](C)[C@H](NC(=O)[C@@H](Cc1ccccc1)NC(=O)[C@@H](Cc1c[nH]c2ccccc12)NC(=O)[C@@H](N)CCCN=C(N)N)C(=O)N[C@H](Cc1ccccc1)C(=O)N[C@@H](Cc1c[nH]cn1)C(=O)N[C@@H](CCCCN)C(=O)N[C@@H](CCCCN)C(=O)NCC(N)=O [listing 1 of 2 here] | 2.77 µM |
| CC[C@H](C)[C@H](NC(=O)[C@@H](Cc1ccccc1)NC(=O)[C@@H](Cc1c[nH]c2ccccc12)NC(=O)[C@@H](N)CCCN=C(N)N)C(=O)N[C@H](Cc1ccccc1)C(=O)N[C@@H](Cc1c[nH]cn1)C(=O)N[C@@H](CCCCN)C(=O)N[C@@H](CCCCN)C(=O)N[C@@H](Cc1ccccc1)C(N)=O [listing 1 of 2 here] | > 7 µM |
| CC[C@H](C)[C@H](NC(=O)[C@@H](Cc1ccccc1)NC(=O)[C@@H](Cc1c[nH]c2ccccc12)NC(=O)[C@@H](N)CCCN=C(N)N)C(=O)N[C@H](Cc1ccccc1)C(=O)N[C@@H](Cc1c[nH]cn1)C(=O)N[C@@H](CCCCN)C(=O)N[C@@H](CCCCN)C(=O)N[C@@H](C)C(N)=O [listing 1 of 2 here] | 3.17 µM |
| CC[C@H](C)[C@H](NC(=O)[C@@H](Cc1ccccc1)NC(=O)[C@@H](Cc1c[nH]c2ccccc12)NC(=O)[C@@H](N)CCCN=C(N)N)C(=O)N[C@H](Cc1ccccc1)C(=O)N[C@@H](Cc1c[nH]cn1)C(=O)N[C@@H](CCCCN)C(=O)N[C@@H](CCCCN)C(=O)N[C@@H](CC(=O)O)C(N)=O [listing 1 of 2 here] | 3.52 µM |

What follows are compounds tested on Cryptococcus neoformans (assay: Concentration that substantially inhibit the growth of Cryptococcus neoformans).
Format: functional

| MIC | SMILES |
| --- | --- |
| 2.51 µM (≈ 3.06 µg/mL) | CC[C@H](C)[C@H](NC(=O)[C@@H](Cc1ccccc1)NC(=O)[C@@H](Cc1c[nH]c2ccccc12)NC(=O)[C@@H](N)CCCN=C(N)N)C(=O)N[C@H](Cc1ccccc1)C(=O)N[C@@H](Cc1c[nH]cn1)C(=O)N[C@@H](CCCCN)C(=O)N[C@@H](CCCCN)C(=O)NCC(N)=O [listing 2 of 2 here] |
| > 7 µM | CC[C@H](C)[C@H](NC(=O)[C@@H](Cc1ccccc1)NC(=O)[C@@H](Cc1c[nH]c2ccccc12)NC(=O)[C@@H](N)CCCN=C(N)N)C(=O)N[C@H](Cc1ccccc1)C(=O)N[C@@H](Cc1c[nH]cn1)C(=O)N[C@@H](CCCCN)C(=O)N[C@@H](CCCCN)C(=O)N[C@@H](Cc1ccccc1)C(N)=O [listing 2 of 2 here] |
| 2.48 µM (≈ 3.05 µg/mL) | CC[C@H](C)[C@H](NC(=O)[C@@H](Cc1ccccc1)NC(=O)[C@@H](Cc1c[nH]c2ccccc12)NC(=O)[C@@H](N)CCCN=C(N)N)C(=O)N[C@H](Cc1ccccc1)C(=O)N[C@@H](Cc1c[nH]cn1)C(=O)N[C@@H](CCCCN)C(=O)N[C@@H](CCCCN)C(=O)N[C@@H](C)C(N)=O [listing 2 of 2 here] |
| 2.37 µM (≈ 3.06 µg/mL) | CC[C@H](C)[C@H](NC(=O)[C@@H](Cc1ccccc1)NC(=O)[C@@H](Cc1c[nH]c2ccccc12)NC(=O)[C@@H](N)CCCN=C(N)N)C(=O)N[C@H](Cc1ccccc1)C(=O)N[C@@H](Cc1c[nH]cn1)C(=O)N[C@@H](CCCCN)C(=O)N[C@@H](CCCCN)C(=O)N[C@@H](CCC(=O)O)C(N)=O |
| 4.8 µM (≈ 6.12 µg/mL) | CC[C@H](C)[C@H](NC(=O)[C@@H](Cc1ccccc1)NC(=O)[C@@H](Cc1c[nH]c2ccccc12)NC(=O)[C@@H](N)CCCN=C(N)N)C(=O)N[C@H](Cc1ccccc1)C(=O)N[C@@H](Cc1c[nH]cn1)C(=O)N[C@@H](CCCCN)C(=O)N[C@@H](CCCCN)C(=O)N[C@@H](CC(=O)O)C(N)=O [listing 2 of 2 here] |
| 2.36 µM (≈ 3.06 µg/mL) | CC[C@H](C)[C@H](NC(=O)[C@@H](Cc1ccccc1)NC(=O)[C@@H](Cc1c[nH]c2ccccc12)NC(=O)[C@@H](N)CCCN=C(N)N)C(=O)N[C@H](Cc1ccccc1)C(=O)N[C@@H](Cc1c[nH]cn1)C(=O)N[C@@H](CCCCN)C(=O)N[C@@H](CCCCN)C(=O)N[C@@H](Cc1c[nH]cn1)C(N)=O |
| 6.81 µM (≈ 6.2 µg/mL) | NCCCC[C@H](NC(=O)[C@@H](Cc1ccccc1)NC(=O)[C@H](Cc1ccccc1)NC(=O)[C@@H](Cc1ccccc1)NC(=O)[C@@H](Cc1c[nH]c2ccccc12)NC(=O)[C@@H](N)Cc1c[nH]cn1)C(N)=O (H-H[dW][dF]F[dF]K-NH2) |
| 6.86 µM (≈ 6.2 µg/mL) | CC[C@H](C)[C@H](NC(=O)[C@@H](Cc1ccccc1)NC(=O)[C@@H](Cc1c[nH]c2ccccc12)NC(=O)[C@@H](N)CCCN=C(N)N)C(=O)N[C@H](Cc1ccccc1)C(=O)N[C@@H](Cc1c[nH]cn1)C(N)=O (H-R[dW][dF]I[dF]H-NH2) |
